Laboratory results: ChEMBL document CHEMBL5725801, “Fused heterocyclic compounds as CaM kinase inhibitors” (2018)

test: CaMKII Cell-Based Activity: CaMKII activity in neonatal rat ventricular myocytes (NRVM) was measured by monitoring the phosphorylation level of phospholamban using high-content imaging. NRVMs were plated in a clear bottom 384-well plate in medium supplemented with 10% fetal bovine serum (FBS) and incubated at 37° C., 5% CO2 overnight. The medium was changed to a serum-free medium and compounds were dosed to the cells. The cells were incubated at 37° C., 5% CO2 for 4 hours and were then treated with 100 nM ATX-II (Alomone Labs) to activate CaMKII. 10 minutes after the addition of ATX-II, the cells were fixed with 4% formaldehyde followed by permeabilization with 0.1% triton X100. The fixed cells were stained with an anti-phospho-phospholamban primary antibody (Santa Cruz Biotechnology) and an Alexa488-labeled anti-rabbit IgG secondary antibody (Life Technologies Corporation) as well as Hoechst 33342 (Life Technologies Corporation). The cells were imaged using an ArrayScan VTI (Cellomics) and analyzed for cells containing a positive fluorescent signal at 485 nm, reported as % responder. The % responders were plotted against the compound concentration to determine the compounds EC50.

| SMILES | EC50 [nM] |
| --- | --- |
| O=C(c1ccnc(-c2cnn3ccc(-c4ccccc4)nc23)c1)N1CCCCC12CCCNC2 (centres undefined) | 45.3 |
| O=C(NC[C@@H]1CCN1)c1ccnc(-c2cnn3ccc(-c4cccs4)nc23)c1 | 132 |
| O=C(c1ccnc(-c2cnn3ccc(-c4ccccc4)nc23)c1)N1CCCC12CCCNC2 (centres undefined) | 8.2 |
| CCN[C@@H](C)CNC(=O)c1ccnc(-c2cnn3ccc(-c4cccs4)nc23)c1 | 33 |
| CCN(CC)[C@@H](C)CNC(=O)c1cc(-c2cnn3ccc(-c4cccs4)nc23)nc(N2CC(C(N)=O)C2)c1 | 71.4 |
| CCCC(CNC(=O)c1ccnc(-c2cnn3ccc(-c4ccccc4)nc23)c1)N(CC)CC (centres undefined) | 31.2 |
| CCN(CC)[C@@H](C)CNC(=O)c1cc(-c2cnn3ccc(-c4cccs4)nc23)nc(N2CCC(O)CC2)c1 | 46.6 |
| CCN(CC)[C@@H](C)CNC(=O)c1cc(OCCCOC)nc(-c2cnn3ccc(-c4cccs4)nc23)c1 | 37.8 |
| CCCNC(CC)CNC(=O)c1ccnc(-c2cnn3ccc(-c4ccccc4)nc23)c1 (centres undefined) | 8.15 |
| CCN(CC)[C@@H](C)CNC(=O)c1cc(OCc2cccnc2)nc(-c2cnn3ccc(-c4cccs4)nc23)c1 | 56.1 |
| CCOC(=O)Nc1cc(C(=O)NC[C@H](C)N(CC)CC)cc(-c2cnn3ccc(-c4cccs4)nc23)n1 | 143 |
| CCN(CC)[C@@H](C)CNC(=O)c1cc(-c2cnn3ccc(-c4cccs4)nc23)nc(N2CC[C@H]2C(=O)NOC)c1 | 84.2 |
| CCN(CC)[C@@H](C)CNC(=O)c1cc(-c2cnn3ccc(-c4cccs4)nc23)nc(N2CC(S(=O)(=O)NC3CC3)C2)c1 | 51 |
| CCN(CC)[C@@H](C)CNC(=O)c1cc(N)nc(-c2cnn3ccc(-c4ccccc4)nc23)c1 | 25 |
| CCN(CC)[C@@H](C)CNC(=O)c1cc(-c2cnn3ccc(-c4cccs4)nc23)nc(N2CCC3(COC3)C2)c1 | 18.2 |
| CCN(CC)[C@@H](C)CNC(=O)c1cc(-c2cnn3ccc(-c4cccs4)nc23)nc(N2CC[C@H]2C(=O)NCC(F)F)c1 | 27.5 |
| CCN(CC)[C@@H](C)CNC(=O)c1cc(NCCS(N)(=O)=O)nc(-c2cnn3ccc(-c4cccs4)nc23)c1 | 232 |
| CCN(CC)[C@@H](C)CNC(=O)c1cc(-c2cnn3ccc(-c4cccs4)nc23)nc(N2CC(C)(C)C2)c1 | 93.8 |
| CCN(CC)[C@@H](C)CNC(=O)c1cc(-c2cnn3ccc(-c4cccs4)nc23)nc(N2CC[C@H]2C(N)=O)c1 | 36 |
| CCN(CC)[C@@H](C)CNC(=O)c1cc(NC2CC2)nc(-c2cnn3ccc(-c4cccs4)nc23)c1 | 30.6 |
| COC1CN(c2cc(C(=O)NC[C@H](C)N)cc(-c3cnn4ccc(-c5cccs5)nc34)n2)C1 | 139 |
| CCN(CC)[C@@H](C)CNC(=O)c1cc(-c2cnn3ccc(-c4cccs4)nc23)nc(N2CC[C@H]2C(=O)N2CC(F)C2)c1 | 16.2 |
| CCN(CC)[C@@H](C)CNC(=O)c1cc(NC[C@H](C)O)nc(-c2cnn3ccc(-c4cccs4)nc23)c1 | 27.1 |
| CCN(CC)[C@@H](C)CNC(=O)c1cc(-c2cnn3ccc(-c4cccs4)nc23)nc(N2CC(C(C)(C)O)C2)c1 | 57.2 |
| COc1cc(C(=O)N2CC[C@H](N)C2)cc(-c2cnn3ccc(-c4cccs4)nc23)n1 | 145 |
| CCc1cc(C(=O)NC[C@H](C)N(CC)CC)cc(-c2cnn3ccc(-c4cccs4)nc23)n1 | 59.7 |
| CC(C)N[C@@H](C)CNC(=O)c1ccnc(-c2cnn3ccc(-c4cccs4)nc23)c1 | 166 |

| SMILES | EC50 [nM] |
| --- | --- |
| Cc1cc(C(=O)N2CCCC[C@@H]2CN)cc(-c2cnn3ccc(-c4ccccc4)nc23)n1 | 52.8 |
| CCN(CC)[C@@H](C)CNC(=O)c1cc(-c2cnn3ccc(-c4cccs4)nc23)nc(N2CC[C@@H](C(=O)NC)C2)c1 | 46.9 |
| CCN(CC)[C@@H](C)CNC(=O)c1cc(-c2cnn3ccc(-c4cccs4)nc23)nc(N2CCCS2(=O)=O)c1 | 11.2 |
| CCN(CC)[C@@H](C)CNC(=O)c1cc(-c2cnn3ccc(-c4cccs4)nc23)nc(N2CC[C@H]2C(=O)N2CC(F)(F)C2)c1 | 29.4 |
| Cc1cc(C(=O)N2CCC[C@@H]2CN)cc(-c2cnn3ccc(-c4ccccc4)nc23)n1 | 211 |
| CCN(CC)[C@@H](C)CNC(=O)c1cc(-c2cnn3ccc(-c4cccs4)nc23)nc(N2CC(S(C)(=O)=O)C2)c1 | 31.3 |
| CCN(CC)[C@@H](C)CNC(=O)c1cc(-c2cnn3ccc(-c4cccs4)nc23)nc(N2CC[C@H]2C(=O)NCC#N)c1 | 65.3 |
| CCN(CC)[C@@H](C)CNC(=O)c1cc(-c2cnn3ccc(-c4cccs4)nc23)nc(N2CCO[C@H](CO)C2)c1 | 43.5 |
| CN(C)CCNC(=O)c1ccnc(-c2cnn3ccc(-c4ccccc4)nc23)c1 | 320 |
| NC[C@@H]1CCCCN1C(=O)c1cc(Cl)nc(-c2cnn3ccc(-c4ccccc4)nc23)c1 | 213 |
| CN(CCn1ccnc1)c1cc(C(=O)N2CC3CCC(C2)NC3)cc(-c2cnn3ccc(-c4cccs4)nc23)n1 (centres undefined) | 449 |
| CCN(CC)[C@@H](C)CNC(=O)c1cc(-c2cnn3ccc(-c4ccncc4)nc23)nc(N2CC(OC)C2)c1 | 607 |
| CCN(CC)[C@@H](C)CNC(=O)c1cc(NCCN(C)C)nc(-c2cnn3ccc(-c4cccs4)nc23)c1 | 59 |
| CCN(CC)[C@@H](C)CNC(=O)c1cc(-c2cnn3ccc(-c4cccs4)nc23)nc(N2C[C@@H]3C[C@H]2CO3)c1 | 514 |
| O=C(c1ccnc(-c2cnn3ccc(-c4cccs4)nc23)c1)N1C2CCNCC1CC2 (centres undefined) | 187 |
| Nc1cc(C(=O)N2C3CCNCC2CC3)cc(-c2cnn3ccc(-c4ccccc4)nc23)n1 (centres undefined) | 606 |
| CCN(CC)[C@@H](C)CNC(=O)c1cc(-c2cnn3ccc(-c4cccs4)nc23)nc(N2CC(F)(F)C2)c1 | 17.3 |
| CCC(=O)Nc1cc(C(=O)NC[C@H](C)N(CC)CC)cc(-c2cnn3ccc(-c4cccs4)nc23)n1 | 48.8 |
| C[C@@H](CNC(=O)c1ccnc(-c2cnn3ccc(-c4cccs4)nc23)c1)NCC1CC1 | 15.1 |
| CCN[C@@H](C)CNC(=O)c1cc(-c2cnn3ccc(-c4cccs4)nc23)nc(N2CC[C@H]2C(=O)NC)c1 | 654 |
| CCN(CC)[C@@H](C)CNC(=O)c1cc(-c2cnn3ccc(-c4cccs4)nc23)nc(N2CC(CO)C2)c1 | 21.6 |
| C[C@@H](CNC(=O)c1ccnc(-c2cnn3ccc(-c4cccs4)nc23)c1)NCC(F)(F)F | 717 |
| CCN(CC)[C@@H](C)CNC(=O)c1cc(-c2cnn3ccc(-c4cccs4)nc23)nc(N2CCC(C(N)=O)CC2)c1 | 115 |
| CCN[C@@H](C)CNC(=O)c1cc(-c2cnn3ccc(-c4ccccc4)nc23)nc(C(C)C)c1 | 19.5 |
| CN(C)c1cc(C(=O)N2CCCC[C@@H]2CN)cc(-c2cnn3ccc(-c4cccs4)nc23)n1 | 49 |
| O=C(NCC1CCCCN1)c1ccnc(-c2cnn3ccc(-c4cccs4)nc23)c1 (centres undefined) | 288 |
| O=C(c1ccnc(-c2cnn3ccc(-c4ccccc4)nc23)c1)N1CCC2CNCC21 (centres undefined) | 48.5 |

| SMILES | EC50 [nM] |
| --- | --- |
| CCN(CC)[C@@H](C)CNC(=O)c1cc(-c2cnn3ccc(-c4cccs4)nc23)nc(N(C)C)c1 | 40.8 |
| CCN(CC)[C@@H](C)CNC(=O)c1cc(NCC2(N3CCCC3)COC2)nc(-c2cnn3ccc(-c4cccs4)nc23)c1 | 232 |
| CCN[C@@H](C)CNC(=O)c1cc(N)nc(-c2cnn3ccc(-c4ccccc4)nc23)c1 | 113 |
| CC1(C)CNC1CNC(=O)c1ccnc(-c2cnn3ccc(-c4ccccc4)nc23)c1 (centres undefined) | 166 |
| NC[C@H]1CCCCN1C(=O)c1cc(Cl)nc(-c2cnn3ccc(-c4cccs4)nc23)c1 | 23.7 |
| CCN(CC)[C@@H](C)CNC(=O)c1cc(-c2c[nH]nc2C)nc(-c2cnn3ccc(-c4cccs4)nc23)c1 | 70.4 |
| CN(C)c1cc(C(=O)N2CCCC[C@@H]2CN)cc(-c2cnn3ccc(-c4ccccc4)nc23)n1 | 53.2 |
| CCN(CC)[C@@H](C)CNC(=O)c1cc(-c2cnn3ccc(-c4cccs4)nc23)nc(N2CC(NS(=O)(=O)Cc3ccon3)C2)c1 | 27 |
| CCN(CC)[C@@H](C)CNC(=O)c1cc(-c2cnn3ccc(-c4cccs4)nc23)nc(N2CC(NC(=O)C3CC3)C2)c1 | 3.75 |
| CCN(CC)[C@@H](C)CNC(=O)c1cc(NCc2ncc[nH]2)nc(-c2cnn3ccc(-c4cccs4)nc23)c1 | 148 |
| NC[C@@H]1CCCCN1C(=O)c1cc(Cl)nc(-c2cnn3ccc(-c4cccs4)nc23)c1 | 243 |
| CCN(CC)[C@@H](C)CNC(=O)c1cc(-c2cnn3ccc(-c4cccs4)nc23)nc(N2CC[C@H]2C(=O)N(C)C)c1 | 10.7 |
| CCN(CC)[C@@H](C)CNC(=O)c1cc(-c2cnn3ccc(-c4cccs4)nc23)nc(N2CC(C)(O)C2)c1 | 21.4 |
| COc1cc(C(=O)N2CCCC[C@H]2CN)cc(-c2cnn3ccc(-c4ccccc4)nc23)n1 | 288 |
| C[C@@H]1CNCCN1C(=O)c1ccnc(-c2cnn3ccc(-c4cccs4)nc23)c1 | 208 |
| CCN(CC)[C@@H](C)CNC(=O)c1cc(-c2cnn3ccc(-c4cccs4)nc23)nc(N2CC(C(F)(F)F)C2)c1 | 54.4 |
| CCNc1cc(C(=O)NC[C@H](C)N(CC)CC)cc(-c2cnn3ccc(-c4cccs4)nc23)n1 | 97.8 |
| CCN(CC)[C@@H](C)CNC(=O)c1cc(-c2cnn3ccc(-c4cccs4)nc23)nc(N2CC[C@@H](N)C2)c1 | 68.8 |
| CCN(CC)[C@@H](C)CNC(=O)c1cc(-c2c(C)n[nH]c2C)nc(-c2cnn3ccc(-c4cccs4)nc23)c1 | 9.37 |
| CCN(CC)[C@@H](C)CNC(=O)c1cc(-c2cnn3ccc(-c4cccs4)nc23)nc(N2CCC(F)(F)C2)c1 | 28.1 |
| CCN(CC)[C@@H](C)CNC(=O)c1cc(N[C@H](C)C(=O)NC)nc(-c2cnn3ccc(-c4cccs4)nc23)c1 | 147 |
| CCN(CC)[C@@H](C)CNC(=O)c1cc(NC[C@@H](C)O)nc(-c2cnn3ccc(-c4cccs4)nc23)c1 | 32.7 |
| CCN(CC)[C@@H](C)CNC(=O)c1cc(-c2cnn3ccc(-c4cccs4)nc23)nc(N2CCC[C@@H]2CO)c1 | 45.9 |
| CCCNC(CNC(=O)c1ccnc(-c2cnn3ccc(-c4ccccc4)nc23)c1)C(C)C (centres undefined) | 42.9 |
| CCN(CC)[C@@H](C)CNC(=O)c1cc(NC2CCOCC2)nc(-c2cnn3ccc(-c4cccs4)nc23)c1 | 24.2 |
